Experimental data reported in article PMC7577125 (Antimicrobial Agents and Chemotherapy, 2020).
“And” between values parts separate entries of the source, which are not always exact repeats. Equal entries are not always repeated.

Key:
[1] = in vivo; conditions: male
Description: The same solution formulation was administered per os (p.o.) in the same species to determine oral bioavailability.
Pharmacokinetic studies were performed at Wuxi (Shanghai, China) for studies in male mouse, rat, and cynomolgus monkey and at Sai (Pune, India) for studies in male dog. For all oral studies, the formulation was administered in the fasted state (food removed at least 12 h prior to dosing) to groups of 3 per arm.

[2] = system: HBV Cp I105L; experiment: microbe, parasite or virus in culture; format: cell-based, Hepatitis B virus
[3] = system: HBV; parameters: method as in PMID 31711752; conditions: HBeAg-negative patient, day 28 of monotherapy; cited from earlier work
[4] = in vitro; conditions: human
[5] = system: NrtI^R HBV (rtL180M/M204V); experiment: microbe, parasite or virus in culture; format: cell-based, Hepatitis B virus
[6] = system: HBV genotype A; experiment: microbe, parasite or virus in culture; format: cell-based; conditions: Hepatitis B virus, read-out: Mean antiviral EC50
[7] = molecular target: CYP1A2 (Homo sapiens, UniProt P05177); experiment: biochemical
[8] = in vitro; conditions: mouse, plasma
[9] = molecular target: HBV Cp (3CA Cp150-BODIPY) (Hepatitis B virus genotype D subtype adw, UniProt P03147, C107A/C48A/C61A/R150C); experiment: HBV Cp in vitro assembly assay (fluorescence quenching)
[10] = rat, 1 μM
[11] = molecular target: CYP2C8 (Homo sapiens, UniProt P10632); experiment: biochemical
[12] = system: HBV cccDNA; experiment: cccDNA formation assay in infected PHH cells (Southern blot); format: cell-based; conditions: Hepatitis B virus, 96 h, 4 days, read-out: cccDNA % of Control
[13] = in vitro; conditions: human, plasma
[14] = system: HBV Cp D29G; experiment: microbe, parasite or virus in culture; format: cell-based, Hepatitis B virus
[15] = in vitro; conditions: rat, hepatocytes
[16] = system: HBV cell culture models; conditions: concentrations of up to 10 μM
[17] = molecular target: T1, CYP2C19 (Homo sapiens, UniProt P33261); experiment: CYP inhibition in human liver microsomes, 2C19; format: in vitro ADME; conditions: 0.1–100 μM
T1 construct: in human liver microsomes; from tissue; host or cells: human liver microsomes

[18] = molecular target: T2, CYP2C9 (Homo sapiens, UniProt P11712); experiment: CYP inhibition in human liver microsomes, 2C9; format: in vitro ADME; conditions: 0.1–100 μM
T2 construct: in human liver microsomes; from tissue; host or cells: human liver microsomes

[19] = system: HBV; experiment: microbe, parasite or virus in culture; conditions: Hepatitis B virus
[20] = system: HBV; experiment: Extracellular HBV DNA and pgRNA in HepAD38 cells (qPCR, RT-qPCR); format: cell-based, Hepatitis B virus
Text: For HBV RNA Northern blot analysis, total cellular RNA or encapsidated pgRNA samples were resolved in a 1.5% agarose gel containing 2.2 M formaldehyde and transferred onto a Hybond-XL membrane (GE Healthcare). For DNA Southern blot analysis, HBV core DNA or cccDNA samples were resolved by electrophoresis in a 1.2% agarose gel and blotted onto a Hybond-XL membrane. Membranes were probed with either an [α-^32P]UTP (3,000 Ci/mmol; PerkinElmer)-labeled plus-strand-specific (for Northern blot hybridization) or minus-strand-specific (for Southern blot hybridization) HBV riboprobe and exposed to a phosphorimager screen. Extracellular HBV DNA and RNA were copurified from the culture medium of induced HepAD38 cells by using a MinElute virus vacuum kit (Qiagen). Viral DNA was quantified using the above-mentioned qPCR method directly, and HBV RNA was detected by RT-qPCR with the same core region primer/probe set after the removal of DNA contamination by DNase I (Thermo Fisher) treatment.

[21] = system: herpes simplex virus 1, human rhinovirus 16, influenza A virus; experiment: Cell protection assays with 3 unrelated viruses; conditions: concentrations of up to 10 μM
[22] = Sprague-Dawley, rat, iv, 1 mg/kg
[23] = Sprague-Dawley, rat, po, 2 mg/kg
[24] = cynomolgus monkey, iv, 0.5 mg/kg
[25] = Hepatitis B virus, Huh-7, read-out: Mean EC50
[26] = HepAD38, concn ETV 0.01, ABI-H0731 2.0, GLS4 0.5, NVR 3-778 2.5, AT-130 0.8, VRD-32 0.8 μM

T2 sequence (P11712 whole entry): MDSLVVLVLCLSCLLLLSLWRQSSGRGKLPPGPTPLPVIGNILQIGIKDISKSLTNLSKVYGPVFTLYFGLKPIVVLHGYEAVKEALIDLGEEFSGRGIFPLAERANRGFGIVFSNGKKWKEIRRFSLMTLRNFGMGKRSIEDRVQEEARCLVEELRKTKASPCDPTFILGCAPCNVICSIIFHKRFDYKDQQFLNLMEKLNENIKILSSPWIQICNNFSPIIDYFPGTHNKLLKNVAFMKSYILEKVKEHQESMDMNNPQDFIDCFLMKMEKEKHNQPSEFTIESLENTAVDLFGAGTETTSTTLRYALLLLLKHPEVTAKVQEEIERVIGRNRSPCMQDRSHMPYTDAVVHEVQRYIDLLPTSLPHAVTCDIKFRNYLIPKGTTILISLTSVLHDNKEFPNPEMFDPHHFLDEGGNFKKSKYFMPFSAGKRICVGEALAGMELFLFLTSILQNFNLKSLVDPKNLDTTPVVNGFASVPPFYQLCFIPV
T1 sequence (P33261 whole entry): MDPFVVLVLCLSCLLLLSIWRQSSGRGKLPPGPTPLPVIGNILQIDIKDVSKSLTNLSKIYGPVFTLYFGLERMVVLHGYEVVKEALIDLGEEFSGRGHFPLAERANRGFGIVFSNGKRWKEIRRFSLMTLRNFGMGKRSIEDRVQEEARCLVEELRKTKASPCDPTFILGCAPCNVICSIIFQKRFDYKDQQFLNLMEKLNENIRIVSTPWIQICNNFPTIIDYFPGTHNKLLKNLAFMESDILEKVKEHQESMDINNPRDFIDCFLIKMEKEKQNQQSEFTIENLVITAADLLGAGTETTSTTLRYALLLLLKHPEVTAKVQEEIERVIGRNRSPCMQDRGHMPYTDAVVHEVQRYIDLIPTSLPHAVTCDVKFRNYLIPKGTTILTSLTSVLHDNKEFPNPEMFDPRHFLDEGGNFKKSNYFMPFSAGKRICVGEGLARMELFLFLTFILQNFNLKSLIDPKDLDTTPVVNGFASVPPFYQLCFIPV
HBV Cp (3CA Cp150-BODIPY), sequence (P03147 1-150 C48A/C61A/C107A/R150C): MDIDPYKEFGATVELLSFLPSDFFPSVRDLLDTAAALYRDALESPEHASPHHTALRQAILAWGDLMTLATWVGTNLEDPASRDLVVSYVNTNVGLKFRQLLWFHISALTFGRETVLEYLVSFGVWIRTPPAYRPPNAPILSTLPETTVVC
CYP1A2, sequence (P05177 whole entry): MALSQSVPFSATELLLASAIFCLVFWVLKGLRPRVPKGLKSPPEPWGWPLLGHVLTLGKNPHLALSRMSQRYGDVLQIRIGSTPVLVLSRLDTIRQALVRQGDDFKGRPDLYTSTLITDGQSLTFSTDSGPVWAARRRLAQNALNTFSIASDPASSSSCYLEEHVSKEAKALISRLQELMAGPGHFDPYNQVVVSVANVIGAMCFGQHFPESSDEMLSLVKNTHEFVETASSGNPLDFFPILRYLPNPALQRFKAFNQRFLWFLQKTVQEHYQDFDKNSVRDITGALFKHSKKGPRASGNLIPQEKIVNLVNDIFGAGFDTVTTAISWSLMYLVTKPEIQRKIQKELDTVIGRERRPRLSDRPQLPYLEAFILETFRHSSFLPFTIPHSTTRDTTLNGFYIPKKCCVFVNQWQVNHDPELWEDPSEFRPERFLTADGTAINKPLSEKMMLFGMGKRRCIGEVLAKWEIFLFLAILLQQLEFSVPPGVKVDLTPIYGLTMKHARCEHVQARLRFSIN
CYP2C8, sequence (P10632 whole entry): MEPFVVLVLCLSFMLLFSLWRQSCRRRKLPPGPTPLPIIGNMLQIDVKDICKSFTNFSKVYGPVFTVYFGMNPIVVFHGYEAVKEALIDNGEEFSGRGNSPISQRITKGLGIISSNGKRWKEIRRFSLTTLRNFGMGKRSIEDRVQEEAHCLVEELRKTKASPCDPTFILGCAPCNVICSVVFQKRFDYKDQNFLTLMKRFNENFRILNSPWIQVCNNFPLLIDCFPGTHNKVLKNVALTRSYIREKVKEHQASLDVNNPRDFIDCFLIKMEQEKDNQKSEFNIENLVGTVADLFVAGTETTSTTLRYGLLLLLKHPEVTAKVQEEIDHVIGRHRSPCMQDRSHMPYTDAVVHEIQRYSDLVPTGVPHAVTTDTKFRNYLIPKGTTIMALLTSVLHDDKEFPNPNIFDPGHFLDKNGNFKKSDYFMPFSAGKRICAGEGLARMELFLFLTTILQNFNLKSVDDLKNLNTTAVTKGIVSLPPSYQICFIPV

For `O=C(NCc1cnc(C(F)(F)F)s1)c1ccc2c(c1)NC(=O)c1ccccc1S2(=O)=O` [ABI-H0731], the Vd ([1]; CD-1 (mouse), Sprague-Dawley (rat), beagle (dog), cynomolgus monkey, iv) was 1.56 to 4.06 L/kg, the Tmax ([1]; CD-1 (mouse), Sprague-Dawley (rat), beagle (dog), cynomolgus monkey, po) was 0.7 to 3.3 h and the “plasma clearance as % of liver blood flow” value (“plasma clearance as %” for short) ([1]; CD-1, mouse, iv) was 9%. The AUC(0-inf) ([1]; CD-1, mouse, iv, 1 mg/kg) was 2070 ng·h/mL, the T1/2 ([1]; CD-1, mouse, iv, 1 mg/kg) was 3.55 h and the Vd ([1]; CD-1, mouse, iv, 1 mg/kg) was 2.16 L/kg. It also gave a clearance ([1]; CD-1, mouse, iv, 1 mg/kg) of 8.05 mL/min/kg, a half-life ([1]; CD-1, mouse, iv, 1 mg/kg, T1/2) of 3.6 h and an AUC(0-inf) ([1]; CD-1, mouse, po, 5 mg/kg) of 8690 ng·h/mL. The Cmax ([1]; CD-1, mouse, po, 5 mg/kg) was 1420 ng/mL, the Tmax ([1]; CD-1, mouse, po, 5 mg/kg) was 1 h and the bioavailability ([1]; CD-1, mouse, po, 5 mg/kg) was 84%. The half-life ([1]; CD-1, mouse, po, 5 mg/kg, T1/2) was 3.03 h, the “plasma clearance as %” value ([1]; Sprague-Dawley, rat, iv) was 16% and the AUC(0-inf) [1, 22] was 1670 ng·h/mL. It also gave a T1/2 [1, 22] of 4.92 h, a Vd [1, 22] of 3.47 L/kg and a clearance [1, 22] of 10.1 mL/min/kg. For the same compound, the half-life ([1]; Sprague-Dawley, rat, iv, 1 mg/kg, T1/2) was 4.9 h, the AUC(0-inf) [1, 23] was 3160 ng·h/mL and the Cmax [1, 23] was 324 ng/mL. The Tmax [1, 23] was 1 h, the bioavailability [1, 23] was 95% and the half-life ([1]; Sprague-Dawley, rat, po, 2 mg/kg, T1/2) was 6.13 h. For the same compound, the “plasma clearance as %” value ([1]; beagle, dog, iv) was 47%, the AUC(0-inf) ([1]; beagle, dog, iv, 2 mg/kg) was 2890 ng·h/mL and the T1/2 ([1]; beagle, dog, iv, 2 mg/kg) was 2.46 h. The Vd ([1]; beagle, dog, iv, 2 mg/kg) was 1.56 L/kg, the clearance ([1]; beagle, dog, iv, 2 mg/kg) was 14.7 mL/min/kg and the half-life ([1]; beagle, dog, iv, 2 mg/kg, T1/2) was 2.5 h. It also gave a bioavailability ([1]; beagle, dog, po) of 49%, an AUC(0-inf) ([1]; beagle, dog, po, 3 mg/kg) of 2150 ng·h/mL and a Cmax ([1]; beagle, dog, po, 3 mg/kg) of 861 ng/mL. For the same compound, the Tmax ([1]; beagle, dog, po, 3 mg/kg) was 0.667 h, the half-life ([1]; beagle, dog, po, 3 mg/kg, T1/2) was 3.34 h and the “plasma clearance as %” value ([1]; cynomolgus monkey, iv) was 11%. It also gave an AUC(0-inf) [1, 24] of 1750 ng·h/mL, a Vd [1, 24] of 4.06 L/kg and a clearance [1, 24] of 4.86 mL/min/kg. The half-life [1, 24] was 12.6 h, the AUC(0-inf) ([1]; cynomolgus monkey, po, 2 mg/kg) was 4340 ng·h/mL and the Cmax ([1]; cynomolgus monkey, po, 2 mg/kg) was 353 ng/mL. For the same compound, the Tmax ([1]; cynomolgus monkey, po, 2 mg/kg) was 3.33 h, the bioavailability ([1]; cynomolgus monkey, po, 2 mg/kg) was 55% and the half-life ([1]; cynomolgus monkey, po, 2 mg/kg) was 11.6 h. For the same compound, the EC50 [2, 25] was 41 ± 6 nM, the Fold shift ([2]; I105L vs wild type) was 0.3 fold and the “decline in viral load in a patient harboring T109M at baseline” value [3] was 1.0 log and 1 log. The CC50 at 4 days [4] was greater than 10000 nM, the Fold shift ([5]; HepG2-NrtI^R versus HepAD38 (wild type)) was 1.2 fold and the EC50 ([5]; Hepatitis B virus, 96 h, read-out: Mean EC50) was 262 ± 97 nM. For the same compound, the EC50 [6] was 113 ± 22 nM, the IC50 [7] was greater than 100000 nM and the fraction unbound at 6 h [8] was 0.03 to 0.034. The IC50 [9] was 267 nM, the “% LBF” value [10] was 32% and the CLpred [10] was 21 mL/min/kg. It also gave an IC50 [11] of 27200 nM, an activity at […] ([12]; 0.37 μM) of 90% and an activity at 1.11 µM ([12]; 1.11 μM) of 80%. For the same compound, the activity at 3.33 µM ([12]; 3.33 μM) was 56%, the activity at 10 µM ([12]; 10.0 μM) was 15% and the fraction unbound at 6 h, 3 μM [13] was 0.031. It also gave a fraction unbound at 6 h, 10 μM [13] of 0.034, a fraction unbound at 6 h, 30 μM [13] of 0.024 and a Fold shift ([14]; D29G vs wild type) of 20 fold. For the same compound, the EC50 [14, 25] was 2960 nM, the half-life at 1 μM [15] was 1.75 h and the cytotoxicity [16] was “No cytotoxicity was observed”. For the same compound, the IC50 [17] was 42800 nM, the IC50 [18] was 30700 nM and the EC50 ([19]; HePAD38, HepAD38, 2% HPL) was 200 ± 5 nM. For the same compound, the EC50 ([19]; HePAD38, HepAD38, 20% HPL) was 522 ± 40 nM, the “secretion of HBV RNA and DNA in the culture medium” value ([20]; HepAD38, 10-fold over VR EC50) was ≤ 3 % of the DMSO control and the “Extracellular DNA content (% of DMSO control)” value [20, 26] was 1.4 % of DMSO control. The “Extracellular pgRNA content (% of DMSO control)” value [20, 26] was 3.1 % of DMSO control and the “inhibitory activity against unrelated viruses” value [21] was “no significant inhibitory activity”.
